The results in this text go back to patent US20040102387A1 (priority 2002, published 2004).

The target in this test is Botulinum neurotoxin type A (Clostridium botulinum, UniProt P0DPI0). The test is classed as cell-based.
Botulinum neurotoxin type A, sequence (P0DPI0 whole entry, looked up): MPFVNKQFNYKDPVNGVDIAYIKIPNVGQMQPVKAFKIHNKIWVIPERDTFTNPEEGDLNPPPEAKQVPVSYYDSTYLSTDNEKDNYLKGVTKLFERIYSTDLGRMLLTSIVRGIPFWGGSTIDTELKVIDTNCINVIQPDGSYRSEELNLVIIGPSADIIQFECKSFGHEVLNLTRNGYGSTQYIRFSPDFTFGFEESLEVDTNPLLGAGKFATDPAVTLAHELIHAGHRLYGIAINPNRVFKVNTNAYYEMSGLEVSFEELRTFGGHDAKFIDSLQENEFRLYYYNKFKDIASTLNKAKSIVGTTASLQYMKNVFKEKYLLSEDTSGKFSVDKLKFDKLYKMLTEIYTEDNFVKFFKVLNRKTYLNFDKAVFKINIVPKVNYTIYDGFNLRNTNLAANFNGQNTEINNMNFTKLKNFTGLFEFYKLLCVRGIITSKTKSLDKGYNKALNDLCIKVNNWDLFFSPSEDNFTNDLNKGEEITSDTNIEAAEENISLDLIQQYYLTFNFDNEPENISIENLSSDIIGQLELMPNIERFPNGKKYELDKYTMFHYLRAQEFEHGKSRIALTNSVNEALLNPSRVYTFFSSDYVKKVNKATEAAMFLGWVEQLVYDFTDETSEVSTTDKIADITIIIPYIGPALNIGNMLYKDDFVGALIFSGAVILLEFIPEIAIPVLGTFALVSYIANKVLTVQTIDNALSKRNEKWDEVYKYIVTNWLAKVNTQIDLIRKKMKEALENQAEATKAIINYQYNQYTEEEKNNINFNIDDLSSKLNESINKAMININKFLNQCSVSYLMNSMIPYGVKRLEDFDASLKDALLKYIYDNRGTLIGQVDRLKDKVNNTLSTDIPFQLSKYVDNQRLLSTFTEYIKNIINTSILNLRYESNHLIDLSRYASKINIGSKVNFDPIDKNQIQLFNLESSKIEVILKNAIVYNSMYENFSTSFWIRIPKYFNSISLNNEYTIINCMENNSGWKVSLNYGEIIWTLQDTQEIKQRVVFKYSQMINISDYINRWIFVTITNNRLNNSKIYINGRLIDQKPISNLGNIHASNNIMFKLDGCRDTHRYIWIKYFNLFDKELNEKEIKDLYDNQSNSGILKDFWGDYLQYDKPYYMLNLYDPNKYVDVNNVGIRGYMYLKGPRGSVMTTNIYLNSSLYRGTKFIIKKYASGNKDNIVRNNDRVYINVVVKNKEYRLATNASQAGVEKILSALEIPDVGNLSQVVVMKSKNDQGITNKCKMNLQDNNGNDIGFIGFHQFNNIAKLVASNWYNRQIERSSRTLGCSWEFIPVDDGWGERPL
Consider `C[C@@H]1O[C@@H](OC[C@H]2O[C@@H](Oc3c(-c4ccc(O)c(O)c4)oc4cc(O)cc(O)c4c3=O)[C@H](O)[C@@H](O)[C@@H]2O)[C@H](O)[C@H](O)[C@H]1O` [first component, rutin], for which the “neurotoxin-neutralizing activity (neuromuscular contractility, FIG. 2)” value (shortened to “neurotoxin-neutralizing activity”) is “high toxin-neutralizing activities”.
With `C[C@@H]1O[C@@H](OC[C@H]2O[C@@H](Oc3c(-c4ccc(O)cc4)oc4cc(O)cc(O)c4c3=O)[C@H](O)[C@@H](O)[C@@H]2O)[C@H](O)[C@H](O)[C@H]1O` [fourth component, nicotiflorin], the “neurotoxin-neutralizing activity” value was “high toxin-neutralizing activities”.
With “kaempferol-3-(O-glc-rha)-4′-O-rha [second component]”, the “neurotoxin-neutralizing activity” value is “high toxin-neutralizing activities”.
Take “kaempferol-3-O-glc-(6-1)-rha-(3-1)-glc [third component]”: the “neurotoxin-neutralizing activity” value is on record as “high toxin-neutralizing activities”.
